Measurements from patent publication US10654818B2, “Furane derivatives as inhibitors of ATAD2” (BAYER PHARMA AKTIENGESELLSCHAFT, priority 2015, dated 2020).

Each compound was assayed against T1, recombinant, N-terminally GST-tagged ATAD2 bromodomain amino acids 981-1108 (Homo sapiens, UniProt Q6PL18) (assay: TR-FRET assay: disruption of the interaction between ATAD2 and acetylated Histone H4 (Ac-H4) peptide). Conditions: inhibition of ATAD2/Ac-H4 complex formation; 10 nM ATAD2, 50 nM Ac-H4 peptide.
T1 construct: ATAD2 bromodomain amino acids 981-1108; made in house; host or cells: E. coli
T1 sequence (Q6PL18 981-1108): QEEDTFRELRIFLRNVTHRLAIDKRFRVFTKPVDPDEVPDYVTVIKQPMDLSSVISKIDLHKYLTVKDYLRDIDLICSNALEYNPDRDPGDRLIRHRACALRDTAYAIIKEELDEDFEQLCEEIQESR
Format: binding
Description: The ability of the compounds described in the present invention to disrupt the interaction between ATAD2 and acetylated Histone H4 (Ac-H4) was used as quantitative measure of their ATAD2-binding affinities.
To this end a TR-FRET assay which detects the binding of an Ac-H4-derived synthetic peptide (purchased from e.g. Biosyntan (Berlin, Germany)) of sequence HSGRGKGGGGKGLGK(Ac)GGAKRHRK-Biotin to recombinant, N-terminally GST-tagged ATAD2 bromodomain amino acids 981-1108. The protein was produced in-house via E. coli expression followed by GSH-Sepharose affinity- and Superdex S200-size exclusion chromatography purification.
Typically, 11 different concentrations of each compound (0.1 nM, 0.33 nM, 1.1 nM, 3.8 nM, 13 nM, 44 nM, 0.15 μM, 0.51 μM, 1.7 μM, 5.9 μM and 20 μM) were tested in duplicate within the same microtiter plate. To this end, 100-fold concentrated compound solutions (in DMSO) were previously prepared with a Precision Pippeting System (BioTek) by serial dilution (1:3.4) of 2 mM stocks in clear, low-volume 384-well microtiter source plates (Greiner Bio-One). Subsequently, 50 nl of compounds were transferred into black, low-volume test plates from the same supplier using a Hummingbird capillary based liquid handling instrument (Digilab). Tests were started by the addition of 2 μl of 2.5-fold concentrated ATAD2 solution (25 nM=10 nM final concentration in the 5 μl assay volume) in aqueous assay buffer [50 mM HEPES pH 7.5, 50 mM potassium fluoride (KF), 100 mM sodium chloride (NaCl), 0.25 mM CHAPS, 0.05% bovine serum albumine (BSA) and 1 mM dithiothreitol (DTT)] to the compounds in the test plate with a Multidrop dispenser (Thermo-Fisher). Test plates were then incubated 10′ at 22° C., in order to allow pre-equilibration of putative compound-ATAD2 complexes. Subsequently, 3 μl of a 1.67-fold concentrated solution containing Ac-H4 peptide (83.5 nM=50 nM final concentration) and TR-FRET detection reagents [16.7 nM Anti-GST-XL665 (Cisbio), =10 nM final concentration and 4.17 nM Lance EU W-1024 Streptavidin Europium Chelate (Perkin-Elmer)=2.5 nM final concentration were dispensed into the plates.
The mixture was further incubated in the dark for 1 hour at 22° C. Finally the inhibition of the formation of ATAD2/Ac-H4 complexes was assessed by measurement of the resonance energy transfer from the Streptavidin-Eu-Chelate to the anti-GST-XL665 antibody present in the reaction. To this end, the fluorescence emissions at 622 nm and 665 nm after excitation at 337 nm were measured in a TR-FRET reader, e.g. a Rubystar or Pherastar (both from BMG Lab Technologies) or a Viewlux (Perkin-Elmer) and the ratio of the emissions at 665 nm and at 622 nm was taken as indicator for the amount of ATAD2/Ac-H4 complexes in equilibrium.
The data were normalized using two sets of control wells (16 each). The first accounted for 100% ATAD2/Ac-H4 binding (0% inhibition), and contained all reaction components but DMSO instead of inhibitors. The second represented 0% ATAD2/Ac-H4 binding (100% inhibition), and included all assay components except ATAD2. IC50 values were calculated by fitting the normalized inhibition data to a 4-parameter logistic equation using either Screener software (Genedata) or a Bayer-proprietary analysis software.

`Cc1ccc([C@@H](C)NCc2ccc(-c3ccc(Cl)c(C(=O)N[C@@H](CNC4CCNC(C)(C)C4)Cc4ccc(C#N)cc4)c3)o2)cc1` (mixture of isomers) [Example 68] and `Cc1ccc([C@@H](C)NCc2ccc(-c3ccc(Cl)c(C(=O)N[C@@H](CN[C@H]4CC[C@@H](N)CC4)Cc4ccc(C#N)cc4)c3)o2)cc1` (single isomer, unassigned) [Example 72] are within 1.5-fold of each other in IC50: 109 nM for the first, 138 nM for the second.

`Cc1ccc(C(C)NCc2ccc(-c3ccc(Cl)c(C(=O)N[C@@H](Cc4ccc(C#N)cc4)c4ncc[nH]4)c3)o2)cc1` (stereo in doubt) [Example 19, 2-chloro-N-[2-(4-cyanophenyl)-1-(1H-imidazol-2-yl)ethyl]-5-[5-({[(1S)-1-(4-methylphenyl)ethyl]amino}methyl)-2-furyl]benzamide] and `Cc1ccc([C@@H](C)NCc2ccc(-c3ccc(Cl)c(C(=O)N[C@H](Cc4ccc(C#N)cc4)C(N)=O)c3)o2)cc1` [Example 2, Nα-{2-chloro-5-[5-({[(1R)-1-(4-methylphenyl)ethyl]amino}methyl)-2-furyl]benzoyl}-4-cyano-D-phenylalaninamide] are within 1.5-fold of each other in IC50: 640 nM for the first, 949 nM for the second.

`Cc1ccc([C@@H](C)NCc2ccc(-c3ccc(Cl)c(C(=O)N[C@H]4CNCC[C@H]4c4ccc(C#N)cc4)c3)o2)cc1` (stereo in doubt) [Example 76, Cis-chloro-N-[4-(4-cyanophenyl)piperidin-3-yl]-5-[5-({[(1R)-1-(4-methylphenyl)-ethyl]amino}methyl)-2-furyl]benzamide] and `Cc1ccc([C@@H](C)NCc2ccc(-c3ccc(Cl)c(C(=O)N[C@H](Cc4ccc(C#N)cc4)[C@@H](C)O)c3)o2)cc1` [Example 16, 2-chloro-N-[(2R,3R)-1-(4-cyanophenyl)-3-hydroxybutan-2-yl]-5-[5-({[(1R)-1-(4-methylphenyl)ethyl]amino}methyl)-2-furyl]benzamide] are within 1.5-fold of each other in IC50: 441 nM for the first, 570 nM for the second.

`Cc1ccc([C@@H](C)NCc2ccc(-c3ccc(Cl)c(C(=O)N[C@@H](CC(=O)N(C)C)Cc4ccc(C#N)cc4)c3)o2)cc1` [Example 1, 2-Chloro-N-[(2R)-1-(4-cyanophenyl)-4-(dimethylamino)-4-oxobutan-2-yl]-5-[5-({[(1R)-1-(4-methylphenyl)ethyl]amino}methyl)furan-2-yl]benzamide] and `Cc1ccc([C@@H](C)NCc2ccc(-c3ccc(Cl)c(C(=O)N[C@@H](CC(N)=O)Cc4ccc(C#N)cc4)c3)o2)cc1` [Example 3, N-[(2R)-4-amino-1-(4-cyanophenyl)-4-oxobutan-2-yl]-2-chloro-5-[5-({[(1R)-1-(4-methylphenyl)ethyl]amino}methyl)furan-2-yl]benzamide] are within 1.5-fold of each other in IC50: 740 nM for the first, 927 nM for the second.

Compared with `CNC(=O)[C@@H](Cc1ccc(C#N)cc1)NC(=O)c1cc(-c2ccc(CN[C@H](C)c3ccc(C)cc3)o2)ccc1Cl` [Example 5, Nα-{2-chloro-5-[5-({[(1R)-1-(4-methylphenyl)ethyl]amino}methyl)furan-2-yl]benzoyl}-4-cyano-N-methyl-D-phenylalaninamide], `COC(=O)[C@@H](Cc1ccc(C#N)cc1)NC(=O)c1cc(-c2ccc(CN[C@H](C)c3ccc(C)cc3)o2)ccc1Cl` [Example 15, methyl N-{2-chloro-5-[5-({[(1R)-1-(4-methylphenyl)ethyl]amino}methyl)-2-furyl]benzoyl}-4-cyano-D-phenylalaninate] is 2.3-fold lower in IC50: 1890 nM for the first, 812 nM for the second.

`Cc1ccc([C@@H](C)NCc2ccc(-c3ccc(Cl)c(C(=O)N[C@@H](CC(=O)NC(C)C)Cc4ccc(C#N)cc4)c3)o2)cc1` [Example 6, 2-chloro-N-[(2R)-1-(4-cyanophenyl)-4-(isopropylamino)-4-oxobutan-2-yl]-5-[5-({[(1R)-1-(4-methylphenyl)ethyl]amino}methyl)-2-furyl]benzamide] and `Cc1ccc([C@@H](C)NCc2ccc(-c3ccc(Cl)c(C(=O)N[C@@H](CC(=O)NCCO)Cc4ccc(C#N)cc4)c3)o2)cc1` [Example 7, 2-chloro-N-{(2R)-1-(4-cyanophenyl)-4-[(2-hydroxyethyl)amino]-4-oxobutan-2-yl}-5-[5-({[(1R)-1-(4-methylphenyl)ethyl]amino}methyl)-2-furyl]benzamide] are within 1.5-fold of each other in IC50: 656 nM for the first, 832 nM for the second.

Going from `Cc1ccc([C@@H](C)NCc2ccc(-c3ccc(Cl)c(C(=O)N[C@@H](CC(=O)NCCCO)Cc4ccc(C#N)cc4)c3)o2)cc1` [Example 8, 2-chloro-N-{(2R)-1-(4-cyanophenyl)-4-[(3-hydroxypropyl)amino]-4-oxobutan-2-yl}-5-[5-({[(1R)-1-(4-methylphenyl)ethyl]amino}methyl)-2-furyl]benzamide] to `Cc1ccc([C@@H](C)NCc2ccc(-c3ccc(Cl)c(C(=O)N[C@@H](CCO)Cc4ccc(C#N)cc4)c3)o2)cc1` [Example 13, 2-chloro-N-[(2R)-1-(4-cyanophenyl)-4-hydroxybutan-2-yl]-5-[5-({[(1R)-1-(4-methylphenyl)ethyl]amino}methyl)-2-furyl]benzamide], the IC50 falls from 898 nM to 386 nM (2.3-fold). The second is the more potent here.

`Cc1ccc([C@@H](C)NCc2ccc(-c3ccc(Cl)c(C(=O)N[C@@H](CC(=O)N4CCCC4)Cc4ccc(C#N)cc4)c3)o2)cc1` [Example 9, 2-chloro-N-[(2R)-1-(4-cyanophenyl)-4-oxo-4-(pyrrolidin-1-yl)butan-2-yl]-5-[5-({[(1R)-1-(4-methylphenyl)ethyl]amino}methyl)-2-furyl]benzamide] and `Cc1ccc([C@@H](C)NCc2ccc(-c3ccc(Cl)c(C(=O)N[C@@H](CC(=O)N4CCOCC4)Cc4ccc(C#N)cc4)c3)o2)cc1` [Example 10, 2-chloro-N-[(2R)-1-(4-cyanophenyl)-4-(morpholin-4-yl)-4-oxobutan-2-yl]-5-[5-({[(1R)-1-(4-methylphenyl)ethyl]amino}methyl)-2-furyl]benzamide] are within 1.5-fold of each other in IC50: 749 nM for the first, 674 nM for the second.

`Cc1ccc([C@@H](C)NCc2ccc(-c3ccc(Cl)c(C(=O)N[C@@H](CC(=O)N4CCN(C)CC4)Cc4ccc(C#N)cc4)c3)o2)cc1` [Example 11, 2-chloro-N-[(2R)-1-(4-cyanophenyl)-4-(4-methylpiperazin-1-yl)-4-oxobutan-2-yl]-5-[5-({[(lR)-1-(4-methylphenyl)ethyl]amino}methyl)-2-furyl]benzamide] and `COC[C@@H](Cc1ccc(C#N)cc1)NC(=O)c1cc(-c2ccc(CN[C@H](C)c3ccc(C)cc3)o2)ccc1Cl` [Example 14, 2-chloro-N-[(2R)-1-(4-cyanophenyl)-3-methoxypropan-2-yl]-5-[5-({[(1R)-1-(4-methylphenyl)ethyl]amino}methyl)-2-furyl]benzamide] are within 1.5-fold of each other in IC50: 822 nM for the first, 891 nM for the second.

Going from `Cc1ccc([C@@H](C)NCc2ccc(-c3ccc(Cl)c(C(=O)N[C@H](Cc4ccc(C#N)cc4)C(C)(C)O)c3)o2)cc1` [Example 12, 2-chloro-N-[(2R)-1-(4-cyanophenyl)-3-hydroxy-3-methylbutan-2-yl]-5-[5-({[(1R)-1-(4-methylphenyl)ethyl]amino}methyl)-2-furyl]benzamide] to `Cc1ccc([C@@H](C)NCc2ccc(-c3ccc(Cl)c(C(=O)N[C@H](Cc4ccc(C#N)cc4)[C@H](C)O)c3)o2)cc1` [Example 17, 2-chloro-N-[(2R,3S)-1-(4-cyanophenyl)-3-hydroxybutan-2-yl]-5-[5-({[(1R)-1-(4-methylphenyl)ethyl]amino}methyl)-2-furyl]benzamide], the IC50 falls from 668 nM to 341 nM (2-fold). The second is the more potent here.

Work on `Cc1ccc([C@@H](C)NCc2ccc(-c3ccc(Cl)c(C(=O)N[C@@H](CO)Cc4ccc(I)cc4)c3)o2)cc1` [Example 18, 2-chloro-N-[(2R)-1-hydroxy-3-(4-iodophenyl)propan-2-yl]-5-[5-({[(1R)-1-(4-methylphenyl)ethyl]amino}methyl)-2-furyl]benzamide] yielded an IC50 of 1130 nM.
